In US5817818A, “Androstenones” (Glaxo Wellcome Inc., priority 1996, dated 1998):

How the values were obtained:
[1] = system: bovine adrenal 3β-hydroxy-Δ^5 -steroid dehydrogenase/3-keto-Δ^5 -steroid isomerase (3BHSD); conditions: cited from earlier work
[2] = system: porcine granulosa cell 3β-hydroxy-Δ^5 -steroid dehydrogenase/3-keto-Δ^5 -steroid isomerase (3BHSD); conditions: cited from earlier work
[3] = target: T1, human type 1 5α-reductase (Homo sapiens, UniProt P18405); assay: Inhibition of human type 1 steroid 5α-reductase (microsomes; testosterone to DHT conversion); format: biochemical; conditions: 10 min preincubation, pH 7.0, 100 nM testosterone, 10-120 min, 1 mM NADPH; read-out: IC50 Human Type 1 5AR
T1 construct: made in house; host or cells: Sf9 insect cells, recombinant baculovirus; microsomes
T1 sequence (P18405 1-259): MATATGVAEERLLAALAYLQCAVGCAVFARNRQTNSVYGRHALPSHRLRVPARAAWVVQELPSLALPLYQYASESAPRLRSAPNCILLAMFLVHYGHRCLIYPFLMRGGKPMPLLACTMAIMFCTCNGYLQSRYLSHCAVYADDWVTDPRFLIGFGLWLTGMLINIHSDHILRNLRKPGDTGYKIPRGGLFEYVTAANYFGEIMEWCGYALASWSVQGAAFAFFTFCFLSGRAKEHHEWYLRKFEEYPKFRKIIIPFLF
Description: (§1) Enzyme activities may be determined using microsomes derived from: 1) prostate tissue from benign prostatic hyperplasia (BPH) patients; 2) recombinant baculovirus infected SF9 cells that express human type 1 5α-reductase; or 3) recombinant baculovirus infected SF9 cells that express human type 2 5α-reductase. Microsomes were prepared by homogenization of the tissue or cells, followed by differential centrifugation of the homogenate. Microsome extracts were incubated with varying concentrations of [1,2,6,7-^3 H]-testosterone, 1 mM NADPH, and varying amounts of the compounds of formula (I,) i.e. a test compound, in buffer containing a NADPH regenerating system capable of maintaining NADPH concentrations for a period of time within the range 0.5-240 minutes. Corresponding incubations were carried out with no test compound as a control study.
(§2) For type 1 IC50 measurements, assay components except testosterone were preincubated for 10 minutes at pH 7.0, and following the addition of 100 nM testosterone the assays were allowed to proceed for 10-120 minutes. For type 2 IC50 measurements, assay components except testosterone were preincubated for 20 minutes at pH 6.0, and following the addition of 8 nM testosterone the assays were allowed to proceed for 20-40 minutes. The percentage of conversion of testosterone to DHT in the presence of test compounds compared to the corresponding conversion in the control study was estimated using high performance liquid chromatography (HPLC) with radiochemical detection.

Human Adrenal 3BHSD = target: T2, Human Adrenal 3BHSD (Homo sapiens, UniProt P26439); assay: Inhibition of human adrenal 3β-hydroxy-Δ^5-steroid dehydrogenase/3-keto-Δ^5-steroid isomerase (3BHSD) (microsomes; DHEA to androstenedione conversion); format: biochemical; conditions: 1 mM NAD+, pH 7.5, 1 to 60 minutes
T2 construct: microsomes derived from human adrenal tissues; from tissue; host or cells: human adrenal tissue, microsomes
T2 sequence (P26439 1-372): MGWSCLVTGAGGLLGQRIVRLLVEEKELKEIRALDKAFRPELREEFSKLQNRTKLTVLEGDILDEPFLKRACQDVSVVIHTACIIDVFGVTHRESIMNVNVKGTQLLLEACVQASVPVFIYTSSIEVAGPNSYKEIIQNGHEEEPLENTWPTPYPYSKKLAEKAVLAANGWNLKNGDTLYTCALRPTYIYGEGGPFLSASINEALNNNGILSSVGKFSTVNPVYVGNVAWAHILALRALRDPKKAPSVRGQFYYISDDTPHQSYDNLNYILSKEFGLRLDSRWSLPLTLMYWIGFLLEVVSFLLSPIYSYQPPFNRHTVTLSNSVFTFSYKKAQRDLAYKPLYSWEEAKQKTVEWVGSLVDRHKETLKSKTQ
Description: Enzyme activities are measured using microsomes derived from human adrenal tissues. Microsomes were prepared by homogenization of the tissue followed by differential centrifugation of the homogenate. Microsome extracts were incubated with varying concentrations of dehydroepiandrosterone (DHEA), 1 mM NAD+, and varying amounts of the compounds of Formula (I), i.e. a test compound, in pH 7.5 buffer for a period of time within the range of 1 to 60 minutes. Corresponding incubations were carried out with no test compound as a control study. The percentage of conversion of DHEA to androstenedione in the presence of test compounds compared to the corresponding conversion in the control study was estimated using HPLC with radiochemical detection.

[4] = target: T3, human type 2 5α-reductase (Homo sapiens, UniProt P31213); assay: Inhibition of human type 2 steroid 5α-reductase (microsomes; testosterone to DHT conversion); format: biochemical; conditions: 20 min preincubation, pH 6.0, 8 nM testosterone, 20-40 min, 1 mM NADPH; read-out: IC50 Human Type 2 5AR
T3 construct: made in house; host or cells: Sf9 insect cells, recombinant baculovirus; microsomes
T3 sequence (P31213 1-254): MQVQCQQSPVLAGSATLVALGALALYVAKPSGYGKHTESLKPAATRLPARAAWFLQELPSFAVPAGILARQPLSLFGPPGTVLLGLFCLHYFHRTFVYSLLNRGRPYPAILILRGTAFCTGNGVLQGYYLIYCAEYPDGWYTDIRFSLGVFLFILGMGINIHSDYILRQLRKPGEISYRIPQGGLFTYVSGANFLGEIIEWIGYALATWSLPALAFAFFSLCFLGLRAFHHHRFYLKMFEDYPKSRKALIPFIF
Description: as §1, §2

Row | Structure (SMILES) | inhibition of bovine adrenal 3BHSD [1] | inhibition of porcine granulosa cell 3BHSD [2] | IC50 [3] [µM] | Ki (Human Adrenal 3BHSD) [µM] | IC50 [4] [µM]
1 | CCN(CC)C(=O)[C@H]1CC[C@H]2[C@@H]3CC[C@H]4N(C)C(=O)CC[C@]4(C)[C@H]3CC[C@]12C [Compound 4-MA] | potent inhibition | potent inhibition |  |  | 
2 | CCC1(CC)CC1(NC(=O)[C@H]1CC[C@H]2[C@@H]3CC[C@H]4NC(=O)C=C[C@]4(C)[C@H]3CC[C@]12C)c1ccc(-c2ccccc2)cc1 (stereo partly drawn) [Compound 21, 17β-N-1-(4-Biphenyl)-2,2-diethylcyclopropylcarbamoyl-4-aza-5α-androst-1-en-3-one] |  |  | < 0.001 | > 1 | < 0.001
3 | C[C@]12CCC(=O)N[C@@H]1CC[C@@H]1[C@@H]2CC[C@]2(C)[C@@H](C(=O)Nc3cc(C(F)(F)F)ccc3C(F)(F)F)CC[C@@H]12 [Compound 22, 17β-N-(2,5-bis(Trifluoromethyl))phenylcarbamoyl-4-aza-5α-androstan-3-one] |  |  | 0.001 to 0.01 | > 1 | < 0.001
4 | CN1C(=O)CC[C@]2(C)[C@H]3CC[C@]4(C)[C@@H](C(=O)Nc5cc(C(F)(F)F)ccc5C(F)(F)F)CC[C@H]4[C@@H]3CC[C@@H]12 [Compound 23, 17β-N-(2,5-bis(Trifluoromethyl))phenylcarbamoyl-4-methyl-4-aza-5α-androstan-3-one] |  |  | < 0.001 | 0.01 to 10 | < 0.001
5 | CC(C)(C)c1ccc(C(F)(F)F)cc1NC(=O)[C@H]1CC[C@H]2[C@@H]3CC[C@H]4NC(=O)C=C[C@]4(C)[C@H]3CC[C@]12C [Compound 24, 17β-N-(2-t-Butyl-5-trifluoromethyl)phenylcarbamoyl-4-aza-5α-androst-1-en-3-one] |  |  | 0.001 to 0.01 | > 1 | < 0.001
6 | CC(C)(C)c1ccc(C(F)(F)F)cc1NC(=O)[C@H]1CC[C@H]2[C@@H]3CC[C@H]4NC(=O)CC[C@]4(C)[C@H]3CC[C@]12C [Compound 25, 17β-N-(2-t-Butyl-5-trifluoromethyl)phenylcarbamoyl-4-aza-5α-androstan-3-one] |  |  | 0.001 to 0.01 | > 1 | < 0.001
7 | CN1C(=O)CC[C@]2(C)[C@H]3CC[C@]4(C)[C@@H](C(=O)Nc5cc(C(F)(F)F)ccc5C(C)(C)C)CC[C@H]4[C@@H]3CC[C@@H]12 [Compound 26, 17β-N-(2-t-Butyl-5-trifluoromethyl)phenylcarbamoyl-4-methyl-4-aza-5α-androstan-3-one] |  |  | < 0.001 | 0.01 to 10 | < 0.001
8 | CC(C)(C)c1ccc(C(C)(C)C)c(NC(=O)[C@H]2CC[C@H]3[C@@H]4CC[C@H]5NC(=O)C=C[C@]5(C)[C@H]4CC[C@]23C)c1 [Compound 27, 17β-N-(2,5-Di-t-butyl)phenylcarbamoyl-4-aza-5α-androst-1-en-3-one] |  |  | 0.001 to 0.01 | 0.01 to 10 | < 0.001
9 | CC(C)(C)c1ccc(C(C)(C)C)c(NC(=O)[C@H]2CC[C@H]3[C@@H]4CC[C@H]5NC(=O)CC[C@]5(C)[C@H]4CC[C@]23C)c1 [Compound 28, 17β-N-(2,5-Di-t-butyl)phenylcarbamoyl-4-aza-5α-androstan-3-one] |  |  | 0.001 to 0.01 | > 1 | < 0.001
10 | CN1C(=O)CC[C@]2(C)[C@H]3CC[C@]4(C)[C@@H](C(=O)Nc5cc(C(C)(C)C)ccc5C(C)(C)C)CC[C@H]4[C@@H]3CC[C@@H]12 [Compound 29, 17β-N-(2,5-Di-t-butyl)phenylcarbamoyl-4-methyl-4-aza-5α-androstan-3-one] |  |  | < 0.001 | 0.01 to 10 | < 0.001
11 | C[C@H]1C[C@H]2NC(=O)C=C[C@]2(C)[C@H]2CC[C@]3(C)[C@@H](C(=O)Nc4cc(C(F)(F)F)ccc4C(F)(F)F)CC[C@H]3[C@H]12 [Compound 30, 17β-N-(2,5-bis(Trifluoromethyl))phenylcarbamoyl-4-aza-7β-methyl-5α-androst-1-en-3-one] |  |  | 0.001 to 0.01 | > 1 | 0.001 to 0.01
12 | C[C@H]1C[C@H]2NC(=O)C=C[C@]2(C)[C@H]2CC[C@]3(C)[C@@H](C(=O)Nc4cc(C(F)(F)F)ccc4C(C)(C)C)CC[C@H]3[C@H]12 [Compound 31, 17β-N-(2-t-Butyl-5-trifluoromethyl)phenylcarbamoyl-4-aza-7β-methyl-5α-androst-1-en-3-one] |  |  | 0.001 to 0.01 | > 1 | 0.001 to 0.01
13 | C[C@H]1C[C@H]2NC(=O)C=C[C@]2(C)[C@H]2CC[C@]3(C)[C@@H](C(=O)NC4(c5ccc(Cl)cc5)CCCC4)CC[C@H]3[C@H]12 [Compound 32, 17β-N-1-(4-Chlorophenyl)cyclopentylcarbamoyl-4-aza-7β-methyl-5α-androst-1-en-3-one] |  |  | 0.001 to 0.01 | > 1 | < 0.001
14 | CC(C)(C)c1ccc(C2(NC(=O)[C@H]3CC[C@H]4[C@@H]5CC[C@H]6NC(=O)C=C[C@]6(C)[C@H]5CC[C@]34C)C3CCCC2CCC3)cc1 (stereo partly drawn) [Compound 33, 17β-N-9-(4-t-Butylphenyl)bicyclo[3.3.1]nonylcarbamoyl-4-aza-5α-androst-1-en-3-one] |  |  | 0.001 to 0.01 | > 1 | < 0.001
